Data: EP1049466B1, “CARBONIC ANHYDRASE INHIBITOR FOR INCREASING OXYGEN TENSION IN THE OPTIC NERVE AND RETINA” (Stefansson, Einar, priority 1998, dated 1999)

Key:
[1] = Continuous arterial blood pressure recording in the experimental pigs; type: in vivo, Danish agricultural pigs (landrace); conditions: after intravenous injection of 500 mg (Figure 7)
Description: Danish agricultural pigs (landrace), 25-33 kg in weight and brought up in specific pathogen free environment, were used. Their treatment was supervised by a veterinarian and followed the decrees of the ARVO Statement for the use of animals in ophthalmic and vision research. All experiments were conducted during daytime. The pigs were anaesthetised with midazolam (dormicum®) and ketamine followed by intravenous application of 250 mg mebumal, fentanylum (Haldid®, Jansen Cilag), 0.5 mg an hour, pancuron bromide (Pavulon®, Organon Technica, Sweden) 16 mg an hour, mebumal (Hospital Pharmacies, Denmark) 50 mg per ml as needed and atropine as needed. The right pupil was dilated with 1% tropicamide eye drops (Mydriacyl® and 2.5% phenylephrine eye drops. A arterial line was placed in a femoral artery for continuous measurement of blood pressure and intermittent blood gas analysis. A venous line was placed in a femoral vein for continuous infusion of the anaesthetics and saline as needed. A rectal thermoprobe provided continuous reading of body temperature.
Arterial blood samples were obtained at regular intervals and arterial PO2, pH and PCO2 were measured with a ABL 605 blood gas analyser (Radiometer, Denmark) (table 1). Arterial blood pressure, electrocardiogram and rectal temperature were monitored continuously and it was verified that these values were within normal limits. […]

[2] = intravenous administration; cited from earlier work
[3] = oral; blue field entopic technique; cited from earlier work
[4] = intravenous; cited from earlier work
[5] = cited from earlier work
[6] = tested on: optic nerve; test: Oxygen tension of optic nerve (ONPO2), polarographic electrode in the vitreous humour 0.5 mm over the optic disc of anaesthetised pigs; type: in vivo, Danish agricultural pigs (landrace)
Description: The pig was secured laterally on an operating table and a speculum was placed between the right eyelids. A conjunctival peritomy was performed and 3-0 silk sutures placed under the rectus muscle tendons to immobilise the eye. A sclerotomy was made 2.5 mm behind the limbus in the superonasal quadrant and a cannula placed, through which the polarographic electrode was advanced into the vitreous cavity. The electrode was held in a micromanipulator (Stoelting Inc. USA) and placed in the vitreous humour approximately 0.5 mm over the optic disc in an area not covered by the large vessels. The entire operation was performed using a Zeiss operating microscope and the electrode was placed using an indirect ophthalmoscope or the microscope and a flat corneal contact lens.
A silver-silver chloride reference electrode was placed in the conjunctival sac of the same (right) eye and kept moist with saline. The polarographic oxygen meter consists of a 100 micrometer platinum-iridium electrode inside a 20 gauge needle (Model 761), a silver-silver chloride reference electrode and a chemical microsensor (Model 1251, Diamond Electrotech Inc., Ann Arbor Mich., USA). The recording system was calibrated before and after each experiment in a calibration cell (Diamond Electrotech. Inc.) at 37 degrees Celsius in 0.9% saline using 100% N2, 5.0%02-95%N2 and 20.000%02-80%N2 (provided by AGA Inc. Denmark). The barometric pressure was monitored, and the oxygen tension recordings were adjusted for barometric pressure, and expressed as mmHg.
The experiments were all run with typical indoor illumination (white fluorescent light tubes (Philips TLM 4OW/29RS)). The ambient light intensity at the level of the pig's eye was measured with a Mavolux digital light meter (Gossen GmbH, Germany) and found to be 497 lux or 6 watt per square meter.
Each experiment was begun with the animal breathing 100% oxygen. Once a stable ONPO2 level was obtained the breathing mixture was changed to air, containing 21% oxygen, and a stable level obtained again. In some experiments the breathing mixture was changed to 20.000% O2 followed by 5.19% CO2, 19.9% O2 (N2 to balance), followed by 20.000% O2.
Polarographic oxygen electrodes were placed in the vitreous humour 0.5 mm above the optic disc in anaesthetized pigs. Arterial blood pressure and gasses were monitored and ONPO was recorded continously with various breathing gasses.

Compound | arterial blood pressure [1] | cerebral blood flow [2] | macular blood flow [3] | retinal blood flow [4] | flow velocity in the intracranial arteries ([5]; in vivo) | flow velocity in the ophthalmic artery ([5]; in vivo) | ocular pulsatile blood flow ([5]; mainly originating from the choroidal circulation) | ONPO2 after injection ([6]; after 500 mg intravenous injection, anaesthetised pigs, mean ± SD) [mmHg] | ONPO2 before injection ([6]; baseline before 500 mg intravenous injection, anaesthetised pigs, mean ± SD) [mmHg] | dose dependence of the effect on ONPO2 ([6]; intravenous, dorzolamide effect seen with 6 to 500 mg (Figures 4 and 8)) | raised the optic nerve oxygen tension by ([6]; summary over the doses given, anaesthetised pigs, n=4 each, p=0.046 (dorzolamide), p=0.005 (acetazolamide)) | ONPO2 in response to breathing 5.19% CO2 ([6]; breathing 5.19% CO2 and 19.9% O2 (N2 to balance), n=4, p<0.001) [mmHg] | ONPO2 before breathing 5.19% CO2 ([6]; breathing 20% O2, n=4) [mmHg]
CC(=O)Nc1nnc(S(N)(=O)=O)s1 [acetazolamide] | transient lowering | increased | no effect | increased | increased | decrease | decrease | 30.9± 10.0 | 23.6± 9.5 | dose dependent | 15-35% |  | 
CO2 |  |  |  |  |  |  |  |  |  |  |  | 28.9 ± 3.6 | 20.8 ± 5.6
